Here are results for 14 compounds from patent US10828315B2 (Madrigal Pharmaceuticals, Inc., priority 2013, dated 2020).

Like-named read-outs stand apart in the source and are kept apart here.

Data set [1] is described as follows: Artificial membrane permeability assay (PAMPA).
Data set [2] in a line: Retention of docetaxel SDC-TRAPs in plasma and tumor (Example 53). Conditions: DRD. It counts as in vivo, Female SCID Mouse (H1975).
Procedure: Blood samples (˜300 μL) were collected by cardiac puncture and immediately centrifuged at 6000 rpm for 8 minutes at approximately 4° C. Resulting plasma samples (˜150 μL) were stored at −80° C. until analysis.
Following sacrifice, tumors were immediately dissected on ice, flash frozen in liquid N2, and stored at −80° C. until analysis.
To 55 μL of plasma samples, 200 μL of methanol containing 150-250 ng/mL internal standard(s) was added. Samples were vortex mixed for approximately 1.5 minutes at ambient temperature and then centrifuged at 4400 rpm for 10 mm at approximately 4° C. The resulting supernatants (175 μL) were transferred to a 96-well plate and dried under nitrogen at 40° C. Dried samples were reconstituted with 100 μL 50/50 (v/v) water/methanol, vortex mixed and 10 μL were injected into LC-MS/MS.
Tumor samples were weighed and homogenized in 5 volume of ice-cold phosphate buffered saline on ice using a hand-held homogenizer. To 55 μL of tumor homogenate samples, 200 μL of methanol containing 150-250 ng/mL internal standard(s) was added. Samples were vortex mixed for approximately 1.5 minutes at ambient temperature and then centrifuged at 4400 rpm for 10 min at approximately 4° C. The resulting supernatants (175 μL) were transferred to a 96-well plate and dried under nitrogen at 40° C. Dried samples were reconstituted with 100 μL 50/50 (v/v) water/methanol, vortex mixed and 10 μL were injected into LC-MS/MS.
Plasma and tumor samples were analyzed by LC-MS/MS using an Agilent 1100 HPLC (Agilent Technologies, Santa Clara, Calif.) interfaced to an API 4000 tandem mass spectrometer (Applied Biosystems, Foster City, Calif.). […] The flow rate was 0.5 mL/min. […] Quantitation for each analyte was done by extrapolation from a standard curve ranging from 2.50 to 50000 nM with 1/x^2 weighting.
Blood samples (˜300 μL) were collected by cardiac puncture and immediately centrifuged at 6000 rpm for 8 minutes at approximately 4° C. Resulting plasma samples (˜150 μL) were transferred to Eppendorf tubes containing approximately 5-10 mg of NaF, vortex mixed, and stored at −80° C. until analysis.
Following sacrifice tumors were immediately dissected on ice, flash frozen in liquid N2, and stored at −80° C. until analysis.
To 60 μL of plasma samples, 25 μL of 75/25 (v/v) water/acetonitrile containing 100 ng/mL internal standard(s) and 200 μL of acetonitrile were added. Samples were vortex mixed for approximately 2 minutes at ambient temperature and then centrifuged at 4400 rpm for 10 min at approximately 4° C. The resulting supernatants (300 μL) were transferred to a 96-well plate and dried under nitrogen at 40° C. Dried samples were reconstituted with 500 μL 60/40 (v/v) water/acetonitrile, vortex mixed and 10 μL were injected into LC-MS/MS.
Tumor samples were weighed and homogenized in 3 volume of ice-cold phosphate buffered saline on ice using a hand-held homogenizer. To 60 μL of tumor homogenate samples, 25 μL of 75/25 (v/v) water/acetonitrile containing 100 ng/mL internal standard(s) and 200 μL of acetonitrile were added. […] The resulting supernatants (200 μL) were transferred to a 96-well plate and dried under nitrogen at 40° C. Dried samples were reconstituted with 600 μL 60/40 (v/v) water/acetonitrile, vortex mixed and 10 μL were injected into LC-MS/MS.
Plasma and tumor samples were analyzed by LC-MS/MS using an Agilent 1100 HPLC (Agilent Technologies, Santa Clara, Calif.) interfaced to an API 4000 tandem mass spectrometer (Applied Biosystems, Foster City, Calif.). The separation of analytes were performed on a Symmetry Shield Sum C18 (2.1×100 mm; 100 Å) column (Waters, Milford, Mass.) with a run time of 5.0 mm per sample using the mobile phase consisted of 0.1% formic acid (A) and acetonitrile containing 0.1% formic acid (B). […] Quantitation for each analyte was done by extrapolation from a standard curve ranging from 1.00 to 25000 ng/mL with 1/x^2 weighting.
The next data set relates to HER2. Briefly: HER2 degradation assay with BT-474 cell line (Example 12, FACS). In kind it is cell-based, human.
The conditions of data set [3]: Tissue Distribution Data for SDC-TRAP-0154.
Where [4] appears, read: of analyte at 24 h, dosed SDC-TRAP-0427 25 mg/10 mL/kg IV, Table 4.
Setting [5] is: of analyte at 48 h, dosed SDC-TRAP-0427 25 mg/10 mL/kg IV, Table 4.
[6] abbreviates: of analyte at 72 h, dosed SDC-TRAP-0427 25 mg/10 mL/kg IV, Table 4.
Where [7] appears, read: of analyte at 48 h, dosed SDC-TRAP-0426 25 mg/10 mL/kg IV, Table 4.
[8] abbreviates: of analyte at 48 h, dosed SDC-TRAP-0428 25 mg/10 mL/kg IV, Table 4.

Take `COc1cccc2c1C(=O)c1c(O)c3c(c(O)c1C2=O)C[C@@](O)(C(=O)CO)C[C@@H]3O[C@H]1C[C@H](N)[C@H](O)[C@H](C)O1` [Doxorubicin, doxorubicin, reference compound]: the “Mass Retention” value in data set [1] (incubation 5 h, first table) is 21.0%.
Still for that read-out and setting: in the case of `CC(C)c1cc(-c2nnc(O)n2-c2ccc3c(ccn3CCNC(=O)CCCC[C@@H]3SCC4NC(=O)NC43)c2)c(O)cc1O` (stereo in doubt) [SDC-TRAP-0233, N-(2-(5-(3-(2,4-dihydroxy-5-isopropylphenyl)-5-hydroxy-4H-1,2,4-triazol-4-yl)-1H-indol-1-yl)ethyl)-5-((3aS,4S,6aR)-2-oxohexahydro-1H-thieno[3,4-d]imidazol-4-yl)pentanamide] it was 10.9%; in that of `CC(=O)O[C@@]12CO[C@@H]1C[C@H](O)[C@@]1(C)C(=O)[C@H](O)C3=C(C)[C@@H](OC(=O)[C@H](O)[C@@H](NC(=O)OC(C)(C)C)c4ccccc4)C[C@@](O)([C@@H](OC(=O)c4ccccc4)[C@H]21)C3(C)C` [Docetaxel, docetaxel, reference compound], 17.6%.
On to `CC(=O)O[C@@]12CO[C@@H]1C[C@H](O)[C@@]1(C)C(=O)[C@H](O)C3=C(C)[C@@H](OC(=O)[C@H](OC(=O)CCC(=O)NC4CCN(C(=O)C5CCN(Cc6ccc(-n7c(O)nnc7-c7cc(C(C)C)c(O)cc7O)cc6)CC5)CC4)[C@@H](NC(=O)OC(C)(C)C)c4ccccc4)C[C@@](O)([C@@H](OC(=O)c4ccccc4)[C@H]21)C3(C)C` [SDC-TRAP-0427], for which the concentration at 6 h in data set [2] (female, SCID, mouse, in vivo, of analyte at 6 h, dosed SDC-TRAP-0427 7 mg/10 mL/kg IV, Table 5, second optimized procedure, read-out: Plasma Conc.) was 8390 nM; in data set [2] (female, SCID, mouse, in vivo, of analyte at 6 h, dosed SDC-TRAP-0427 25 mg/10 mL/kg IV, Table 4, read-out: Plasma Conc.) it was 20900 nM. For the same compound, the concentration at 48 h in data set [2] (female, SCID, mouse, in vivo, of analyte at 48 h, dosed SDC-TRAP-0427 7 mg/10 mL/kg IV, Table 5, second optimized procedure, read-out: Plasma Conc.) turned out to be 11.8 nM. In addition, in data set [2] (female, SCID, mouse, in vivo, of analyte at 72 h, dosed SDC-TRAP-0427 7 mg/10 mL/kg IV, Table 5, second optimized procedure, read-out: Plasma Conc.), the concentration at 72 h stood at 10.1 nM. In addition, the “Tumor Conc.” value in data set [2] (of analyte at 6 h, dosed SDC-TRAP-0427 7 mg/10 mL/kg IV, Table 5, second optimized procedure) is listed as 1.19 nmol/g of tissue; in data set [2] (of analyte at 6 h, dosed SDC-TRAP-0427 25 mg/10 mL/kg IV, Table 4), 13.6 nmol/g of tissue; in data set [2] (setting [4]), 14.6 nmol/g of tissue; in data set [2] (of analyte at 48 h, dosed SDC-TRAP-0427 7 mg/10 mL/kg IV, Table 5, second optimized procedure), 0.458 nmol/g of tissue; in data set [2] (setting [5]) it was 8.02 nmol/g of tissue; in data set [2] (of analyte at 72 h, dosed SDC-TRAP-0427 7 mg/10 mL/kg IV, Table 5, second optimized procedure) it was 0.372 nmol/g of tissue. Moreover, the “Tumor Conc.” value in data set [2] (setting [6]) was 7.18 nmol/g of tissue. For the same compound, the “Plasma Conc.” value in data set [2] (setting [4]), in data set [2] (setting [5]) and in data set [2] (setting [6]) was “BQL” each time.
For the compound `CC(=O)O[C@@]12CO[C@@H]1C[C@H](O)[C@@]1(C)C(=O)[C@H](O)C3=C(C)[C@@H](OC(=O)[C@H](OC(=O)CCC(=O)N4CCC(N5CCC(CCn6ccc7cc(-n8c(O)nnc8-c8cc(C(C)C)c(O)cc8O)ccc76)CC5)CC4)[C@@H](NC(=O)OC(C)(C)C)c4ccccc4)C[C@@](O)([C@@H](OC(=O)c4ccccc4)[C@H]21)C3(C)C` [SDC-TRAP-0426], in data set [2] (female, SCID, mouse, in vivo, of analyte at 6 h, dosed SDC-TRAP-0426 25 mg/10 mL/kg IV, Table 4, read-out: Plasma Conc.), the concentration at 6 h was found to be 31.1 nM. Besides, the concentration at 24 h in data set [2] (female, SCID, mouse, in vivo, of analyte at 24 h, dosed SDC-TRAP-0426 25 mg/10 mL/kg IV, Table 4, read-out: Plasma Conc.) was 11.1 nM. The “Tumor Conc.” value was 0.375 nmol/g of tissue in data set [2] (of analyte at 6 h, dosed SDC-TRAP-0426 25 mg/10 mL/kg IV, Table 4); 0.256 nmol/g of tissue in data set [2] (of analyte at 24 h, dosed SDC-TRAP-0426 25 mg/10 mL/kg IV, Table 4); 0.337 nmol/g of tissue in data set [2] (setting [7]). In addition, in data set [2] (setting [7]), the “Plasma Conc.” value is recorded as “BQL”.
For `CCNC(=O)c1nnc(-c2cc(C(C)C)c(O)cc2O)n1-c1ccc(CN2CCC(C(=O)N[C@@H](CC(C)C)C(=O)Nc3cccc4c3CN(C3CCC(=O)NC3=O)C4=O)CC2)cc1` (stereo partly drawn) [SDC-TRAP-0193, 1-(4-(3-(2,4-dihydroxy-5-isopropylphenyl)-5-(ethylcarbamoyl)-4H-1,2,4-triazol-4-yl)benzyl)-N-((2S)-1-((2-(2,6-dioxopiperidin-3-yl)-1-oxoisoindolin-4-yl)amino)-4-methyl-1-oxopentan-2-yl)piperidine-4-carboxamide], the “Mass Retention” value in data set [1] (incubation 5 h, first table) came to 10.2%.
The same measure, in the same setting: the result for `CC(C)c1cc(-c2nnc(O)n2-c2ccc(CN3CCN(C(=O)CCn4cc(F)c(=O)[nH]c4=O)CC3)cc2)c(O)cc1O` [SDC-TRAP-0049, 1-(3-(4-(4-(3-(2,4-dihydroxy-5-isopropylphenyl)-5-hydroxy-4H-1,2,4-triazol-4-yl)benzyl)piperazin-1-yl)-3-oxopropyl)-5-fluoropyrimidine-2,4(1H,3H)-dione] reads 14.1%.
For the compound `CCc1c2c(nc3ccc(OC(=O)N4CCC[C@H]4C(=O)N4CCC(CCn5ccc6cc(-n7c(O)nnc7-c7cc(C(C)C)c(O)cc7O)ccc65)CC4)cc13)-c1cc3c(c(=O)n1C2)COC(=O)[C@]3(O)CC` [SDC-TRAP-0210], the IC50 in the data set with HER2 is over 10000 nM. The “Mass Retention” value was 34.8% in data set [1] (incubation 5 h, first table) and 72.2% in data set [1] (same protocol, second table).
Regarding `CC(C)c1cc(-c2nnc(O)n2-c2ccc3c(ccn3CCOCCNC(=O)CCn3cc(F)c(=O)[nH]c3=O)c2)c(O)cc1O` [SDC-TRAP-0048, N-(2-(2-(5-(3-(2,4-dihydroxy-5-isopropylphenyl)-5-hydroxy-4H-1,2,4-triazol-4-yl)-1H-indol-1-yl)ethoxy)ethyl)-3-(5-fluoro-2,4-dioxo-3,4-dihydropyrimidin-1(2H)-yl)propanamide], in data set [1] (incubation 5 h, first table), the “Mass Retention” value is on record as 10.8%.
On the same count and under the same terms, in the case of `CC(C)c1cc(-c2nnc(C(=O)NCCCCCS(N)(=O)=O)n2-c2ccc(CN3CCOCC3)cc2)c(O)cc1O` [SDC-TRAP-0232, 5-(2,4-dihydroxy-5-isopropylphenyl)-4-(4-(morpholinomethyl)phenyl)-N-(5-sulfamoylpentyl)-4H-1,2,4-triazole-3-carboxamide] it was 21.0%.
As to `CC(=O)O[C@@]12CO[C@@H]1C[C@H](O)[C@@]1(C)C(=O)[C@H](O)C3=C(C)[C@@H](OC(=O)[C@H](OC(=O)C4CCN(C(=O)C5CCN(Cc6ccc(-n7c(O)nnc7-c7cc(C(C)C)c(O)cc7O)cc6)CC5)CC4)[C@@H](NC(=O)OC(C)(C)C)c4ccccc4)C[C@@](O)([C@@H](OC(=O)c4ccccc4)[C@H]21)C3(C)C` [SDC-TRAP-0428], the “Tumor Conc.” value in data set [2] (of analyte at 6 h, dosed SDC-TRAP-0428 25 mg/10 mL/kg IV, Table 4) is 5.27 nmol/g of tissue; in data set [2] (of analyte at 24 h, dosed SDC-TRAP-0428 25 mg/10 mL/kg IV, Table 4) it was 3.89 nmol/g of tissue; in data set [2] (setting [8]) it was 3.40 nmol/g of tissue; in data set [2] (of analyte at 72 h, dosed SDC-TRAP-0428 25 mg/10 mL/kg IV, Table 4) it was 1.20 nmol/g of tissue. The “Plasma Conc.” value in data set [2] (setting [8]) is on record as “BQL”.
Take `CCNC(=O)c1nnc(-c2cc(C(C)C)c(O)cc2O)n1-c1ccc(Oc2ccc(C(=O)N3CCC(C(=O)OC4(CC)C(=O)OCc5c4cc4n(c5=O)Cc5c-4nc4ccc(O)cc4c5CC)CC3)cc2)cc1` (stereo not shown) [SDC-TRAP-0154, 4,11-Diethyl-9-hydroxy-3,14-dioxo-3,4,12,14-tetrahydro-1H-pyrano[3′,4′:6,7]indolizino[1,2-b]quinolin-4-yl 1-(4-(4-(3-(2,4-dihydroxy-5-isopropylphenyl)-5-(ethylcarbamoyl)-4H-1,2,4-triazol-4-yl)phenoxy)benzoyl)piperidine-4-carboxylate]: the IC50 in the data set with HER2 stood at 191 nM. In addition, the “Plasma Conc.” value worked out at 928000 nM in data set [3] (Time (h) 0.083); 251000 nM in data set [3] (Time (h) 1); 5080 nM in data set [3] (Time (h) 6); 198 nM in data set [3] (Time (h) 24); 21.8 nM in data set [3] (Time (h) 48). Moreover, the “Tumor Conc.” value in data set [3] (Time (h) 0.083) is given as 11.8 nmol/g of tissue; in data set [3] (Time (h) 1), 14.1 nmol/g of tissue; in data set [3] (Time (h) 6), 9.46 nmol/g of tissue; in data set [3] (Time (h) 24), 2.35 nmol/g of tissue; in data set [3] (Time (h) 48), 1.88 nmol/g of tissue. For the same compound, the “Tumor/Plasma Ratio” value in data set [3] (Time (h) 0.083) stood at 0.01; in data set [3] (Time (h) 1), 0.06; in data set [3] (Time (h) 6), 1.86; in data set [3] (Time (h) 24), 11.9; in data set [3] (Time (h) 48) it was 86.0. Further, in data set [1] (same protocol, second table), the “Mass Retention” value amounted to 10.3%.
On to `CC(C)c1cc(-c2nnc(O)n2-c2ccc3c(ccn3CCNC(=O)CCCCCNC(=O)CCCC[C@H]3SCC4NC(=O)NC43)c2)c(O)cc1O` (stereo in doubt) [SDC-TRAP-0234, N-(2-(5-(3-(2,4-dihydroxy-5-isopropylphenyl)-5-hydroxy-4H-1,2,4-triazol-4-yl)-1H-indol-1-yl)ethyl)-6-(5-((3aR,4R,6aS)-2-oxohexahydro-1H-thieno[3,4-d]imidazol-4-yl)pentanamido)hexanamide], for which the “Mass Retention” value in data set [1] (incubation 5 h, first table) is recorded as 9.56%.
Consider `Cn1c(=O)c2c(ncn2C)n(C)c1=O` [Caffeine], for which the “Mass Retention” value is recorded as 20.8% in data set [1] (incubation 5 h, first table) and −0.11% in data set [1] (same protocol, second table).

The term IC50 denotes the concentration at which inhibition is half-maximal. Higher therefore signals lower potency.
